Where only a bound is given, the exact number is not on record here.

This assay has as its system Endogenous Huntingtin Protein (capture with MW1 (expanded polyglutamine) or MAB2166 antibody). The assay can be described thus: Endogenous Huntingtin Protein Assay (ELISA-based Meso Scale Discovery electrochemiluminescence assay). Type of assay: cell-based. The conditions noted are these: MSD electrochemiluminescence platform. Summed up:
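MSD electrochemiluminescence sandwich immunoassay: plates coated with 1 μg/mL MW1 or MAB2166 capture antibody, samples incubated overnight at 4 °C. Detection with rabbit monoclonal #5656S then SULFO-TAG anti-rabbit (each 0.25 μg/mL, 1 h RT).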
Background: In an ELISA, binding on a coated surface is turned into a signal by an enzyme label.
On to `C[C@@H]1CN(c2ccc(-c3ncc(-c4cc(F)c5nn(C)cc5c4)cc3O)nn2)C[C@H](C)N1` [Compound 69, 2-{6-[(3R,5S)-3,5-dimethylpiperazin-1-yl]pyridazin-3-yl}-5-(7-fluoro-2-methyl-2H-indazol-5-yl)pyridin-3-ol and 2-{6-[(3S,5R)-3,5-dimethylpiperazin-1-yl]pyridazin-3-yl}-5-(7-fluoro-2-methyl-2H-indazol-5-yl)pyridin-3-ol], for which the IC50 is ≤ 100 nM.
Turning to `CN[C@@H]1CCN(c2ccc(-c3ncc(-c4cc(OC)ncn4)cc3O)nn2)C1` [Compound 70, 5-(6-methoxypyrimidin-4-yl)-2-{6-[(3R)-3-(methylamino)pyrrolidin-1-yl]pyridazin-3-yl}pyridin-3-ol], the IC50 is ≤ 100 nM.
The value for `Oc1cc(-n2nccn2)cnc1-c1ccc(OC2CC3(CC3)NC3(CC3)C2)nn1` (stereo not drawn) [Compound 73, 2-{6-[(4-azadispiro[2.1.2^5.3^3]decan-9-yl)oxy]pyridazin-3-yl}-5-(2H-1,2,3-triazol-2-yl)pyridin-3-ol] was 100 to 500 nM; that for `COc1cc(-c2cnc(-c3ccc(OC4CC(C)(C)NC(C)(C)C4)nn3)c(O)c2)ncn1` [Compound 74, 5-(6-methoxypyrimidin-4-yl)-2-{6-[(2,2,6,6-tetramethylpiperidin-4-yl)oxy]pyridazin-3-yl}pyridin-3-ol] was ≤ 100 nM; that for `[2H]C([2H])([2H])n1cc(-c2cnc(-c3ccc(OC4CC(C)(C)NC5(CC5)C4)nn3)c(O)c2)cn1` (stereo not drawn) [Compound 75, 2-{6-[(5,5-dimethyl-4-azaspiro[2.5]octan-7-yl)oxy]pyridazin-3-yl}-5-[1-(^2H3)methyl-1H-pyrazol-4-yl]pyridin-3-ol] was ≤ 100 nM.
`Cc1ncc(-c2cnc(-c3ccc(N4CC[C@@H](NC(C)(C)C)C4)nn3)c(O)c2)o1` [Compound 76, 2-{6-[(3R)-3-(tert-butylamino)pyrrolidin-1-yl]pyridazin-3-yl}-5-(2-methyl-1,3-oxazol-5-yl)pyridin-3-ol]: the IC50 was ≤ 100 nM.
In the case of `CN[C@@H]1CCN(c2ccc(-c3ncc(-c4cnc(C)o4)cc3O)nn2)C1` [Compound 77, 2-{6-[(3R)-3-(methylamino)pyrrolidin-1-yl]pyridazin-3-yl}-5-(2-methyl-1,3-oxazol-5-yl)pyridin-3-ol] it was ≤ 100 nM.
The value for `C[C@@H]1CN(c2ccc(-c3ncc(-c4cc(C#N)c5nn(C)cc5c4)cc3O)nn2)C[C@H](C)N1` [Compound 78, 5-(6-{6-[(3R,5S)-3,5-dimethylpiperazin-1-yl]pyridazin-3-yl}-5-hydroxypyridin-3-yl)-2-methyl-2H-indazole-7-carbonitrile and 5-(6-{6-[(3S,5R)-3,5-dimethylpiperazin-1-yl]pyridazin-3-yl}-5-hydroxypyridin-3-yl)-2-methyl-2H-indazole-7-carbonitrile] was ≤ 100 nM; that for `CC1(C)CC(Oc2ccc(-c3ncc(-c4nccs4)cc3O)nn2)CC2(CC2)N1` (stereo not drawn) [Compound 79, 2-{6-[(5,5-dimethyl-4-azaspiro[2.5]octan-7-yl)oxy]pyridazin-3-yl}-5-(1,3-thiazol-2-yl)pyridin-3-ol] was ≤ 100 nM; that for `CN[C@@H]1CCN(c2ccc(-c3ncc(-c4ncco4)cc3O)nn2)C1` [Compound 80, 2-{6-[(3R)-3-(methylamino)pyrrolidin-1-yl]pyridazin-3-yl}-5-(1,3-oxazol-2-yl)pyridin-3-ol] was 100 to 500 nM.
The value for `COc1cc(-c2cnc(-c3ccc(OC4CC(C)(C)NC(C)(C)C4)nn3)c(O)c2)nn2cc(C)nc12` [Compound 81, 5-(8-methoxy-2-methylimidazo[1,2-b]pyridazin-6-yl)-2-{6-[(2,2,6,6-tetramethylpiperidin-4-yl)oxy]pyridazin-3-yl}pyridin-3-ol] was ≤ 100 nM; that for `[2H]C([2H])([2H])n1cc(-c2cnc(-c3ccc(O[C@H]4C[C@@H](C)NC5(CC5)C4)nn3)c(O)c2)cn1` [Compound 82, 2-(6-{[(5R,7S)-5-methyl-4-azaspiro[2.5]octan-7-yl]oxy}pyridazin-3-yl)-5-[1-(^2H3)methyl-1H-pyrazol-4-yl]pyridin-3-ol] was ≤ 100 nM; that for `[2H]C([2H])([2H])n1cc(-c2cnc(-c3ccc(O[C@@H]4C[C@H](C)NC5(CC5)C4)nn3)c(O)c2)cn1` [Compound 83, 2-(6-{[(5S,7R)-5-methyl-4-azaspiro[2.5]octan-7-yl]oxy}pyridazin-3-yl)-5-[1-(^2H3)methyl-1H-pyrazol-4-yl]pyridin-3-ol] was 100 to 500 nM.
In turn, `[2H]C([2H])([2H])n1cc(-c2cnc(-c3ccc(O[C@H]4C[C@H](C)NC5(CC5)C4)nn3)c(O)c2)cn1` [Compound 84, 2-(6-{[(5S,7S)-5-methyl-4-azaspiro[2.5]octan-7-yl]oxy}pyridazin-3-yl)-5-[1-(^2H3)methyl-1H-pyrazol-4-yl]pyridin-3-ol] gave an IC50 of 500 to 1000 nM.
Consider `[2H]C([2H])([2H])n1cc(-c2cnc(-c3ccc(O[C@@H]4C[C@@H](C)NC5(CC5)C4)nn3)c(O)c2)cn1` [Compound 85, 2-(6-{[(5R,7R)-5-methyl-4-azaspiro[2.5]octan-7-yl]oxy}pyridazin-3-yl)-5-[1-(^2H3)methyl-1H-pyrazol-4-yl]pyridin-3-ol], for which the IC50 was 500 to 1000 nM.
The value for `C[C@@H]1CN(c2ccc(-c3ncc(-c4cn[nH]c4)cc3O)nn2)C[C@H](C)N1` [Compound 86, 2-{6-[(3R,5S)-3,5-dimethylpiperazin-1-yl]pyridazin-3-yl}-5-(1H-pyrazol-4-yl)pyridin-3-ol and 2-{6-[(3S,5R)-3,5-dimethylpiperazin-1-yl]pyridazin-3-yl}-5-(1H-pyrazol-4-yl)pyridin-3-ol] was 100 to 500 nM; that for `COc1cc(-c2cnc(-c3ccc(N4C[C@@H](C)N[C@@H](C)C4)nn3)c(O)c2)cc2cn(C)nc12` [Compound 87, 2-{6-[(3R,5S)-3,5-dimethylpiperazin-1-yl]pyridazin-3-yl}-5-(7-methoxy-2-methyl-2H-indazol-5-yl)pyridin-3-ol and 2-{6-[(3S,5R)-3,5-dimethylpiperazin-1-yl]pyridazin-3-yl}-5-(7-methoxy-2-methyl-2H-indazol-5-yl)pyridin-3-ol] was ≤ 100 nM.
In the case of `CC1(C)CN(c2ccc(-c3ncc(-c4cn[nH]c4)cc3O)nn2)CC(C)(C)N1` [Compound 88, 5-(1H-pyrazol-4-yl)-2-[6-(3,3,5,5-tetramethylpiperazin-1-yl)pyridazin-3-yl]pyridin-3-ol] it was 100 to 500 nM.
As to `Cn1cc2cc(-c3cnc(-c4ccc(N5CC(C)(C)NC(C)(C)C5)nn4)c(O)c3)cc(F)c2n1` [Compound 89, 5-(7-fluoro-2-methyl-2H-indazol-5-yl)-2-[6-(3,3,5,5-tetramethylpiperazin-1-yl)pyridazin-3-yl]pyridin-3-ol], the IC50 is ≤ 100 nM.
For `Cc1cn2cc(-c3cnc(-c4ccc(N5C[C@@H](C)N[C@@H](C)C5)nn4)c(O)c3)ccc2n1` [Compound 92, 2-{6-[(3R,5S)-3,5-dimethylpiperazin-1-yl]pyridazin-3-yl}-5-(2-methylimidazo[1,2-a]pyridin-6-yl)pyridin-3-ol and 2-{6-[(3S,5R)-3,5-dimethylpiperazin-1-yl]pyridazin-3-yl}-5-(2-methylimidazo[1,2-a]pyridin-6-yl)pyridin-3-ol], the IC50 is ≤ 100 nM.
The value for `Cn1cc2cc(-c3cnc(-c4ccc(N5CCNCC5)nn4)c(O)c3)cc(F)c2n1` [Compound 93, 5-(7-fluoro-2-methyl-2H-indazol-5-yl)-2-[6-(piperazin-1-yl)pyridazin-3-yl]pyridin-3-ol] was ≤ 100 nM.

As a reminder, the IC50 is the concentration at which inhibition is half-maximal. A lower IC50 goes with higher potency.

The values above are taken from patent US12577226B2, “Compounds for treating Huntington's disease” (PTC THERAPEUTICS, INC., priority 2019, dated 2026).
